Assay results published in patent publication US20230139171A1 (SITA Information Networking Computing UK Limited, priority 2019, published 2023).

What was measured:
Type in all cases: cell-based
human TLR7 = molecular target: T1, human TLR7 (Homo sapiens, UniProt Q9NYK1); experiment: TLR7 inhibition reporter assay (HEK-Blue cells, SEAP reporter, gardiquimod stimulation); settings: HEK-Blue cells overexpressing human TLR7, SEAP reporter, gardiquimod 7.5 μM; read-out: TLR7 IC50
T1 construct: host or cells: HEK-Blue cells
T1 sequence (Q9NYK1 27-1049): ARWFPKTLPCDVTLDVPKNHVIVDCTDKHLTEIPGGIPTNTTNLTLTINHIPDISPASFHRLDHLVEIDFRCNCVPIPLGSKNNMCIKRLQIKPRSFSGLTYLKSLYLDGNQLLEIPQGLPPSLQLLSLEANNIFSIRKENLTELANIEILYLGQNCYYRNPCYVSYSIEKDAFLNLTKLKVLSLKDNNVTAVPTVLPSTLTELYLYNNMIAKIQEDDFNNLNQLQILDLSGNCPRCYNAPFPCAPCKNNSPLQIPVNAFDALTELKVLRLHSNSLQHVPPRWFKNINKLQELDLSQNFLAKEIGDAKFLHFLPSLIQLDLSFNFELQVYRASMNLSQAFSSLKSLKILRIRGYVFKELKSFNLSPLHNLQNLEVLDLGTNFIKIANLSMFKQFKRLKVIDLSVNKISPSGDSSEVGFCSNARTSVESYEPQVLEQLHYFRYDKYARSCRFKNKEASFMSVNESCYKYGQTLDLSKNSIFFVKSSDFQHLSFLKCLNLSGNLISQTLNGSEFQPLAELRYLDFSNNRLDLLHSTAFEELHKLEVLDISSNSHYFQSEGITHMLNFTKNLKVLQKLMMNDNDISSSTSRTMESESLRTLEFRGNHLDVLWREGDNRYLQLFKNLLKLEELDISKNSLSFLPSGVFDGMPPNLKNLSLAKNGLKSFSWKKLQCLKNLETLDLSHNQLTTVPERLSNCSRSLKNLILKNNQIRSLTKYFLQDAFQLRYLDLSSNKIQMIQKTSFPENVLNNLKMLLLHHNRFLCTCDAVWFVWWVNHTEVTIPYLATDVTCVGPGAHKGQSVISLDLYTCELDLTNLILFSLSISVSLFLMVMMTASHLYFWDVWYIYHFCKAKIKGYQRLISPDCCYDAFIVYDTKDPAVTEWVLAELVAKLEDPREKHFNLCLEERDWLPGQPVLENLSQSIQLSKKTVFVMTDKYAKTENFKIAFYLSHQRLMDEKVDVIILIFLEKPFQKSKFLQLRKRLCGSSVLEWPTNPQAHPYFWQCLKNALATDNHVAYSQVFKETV
Method in brief: (§1)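 Screening used HEK-Blue cells overexpressing one human TLR (7, 8 or 9) and an IFN-β minimal promoter–NF-κB/AP-1 SEAP construct. Stimulation lasted 22 h at 37 °C with receptor-specific agonist: gardiquimod, R848 or ODN2006 at 7.5 μM, 15.9 μM and 5 nM.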

human TLR8 = molecular target: T2, human TLR8 (Homo sapiens, UniProt Q9NR97); experiment: TLR8 inhibition reporter assay (HEK-Blue cells, SEAP reporter, R848 stimulation); settings: HEK-Blue cells overexpressing human TLR8, SEAP reporter, R848 15.9 μM; read-out: TLR8 IC50
T2 construct: host or cells: HEK-Blue cells
T2 sequence (Q9NR97 27-1041): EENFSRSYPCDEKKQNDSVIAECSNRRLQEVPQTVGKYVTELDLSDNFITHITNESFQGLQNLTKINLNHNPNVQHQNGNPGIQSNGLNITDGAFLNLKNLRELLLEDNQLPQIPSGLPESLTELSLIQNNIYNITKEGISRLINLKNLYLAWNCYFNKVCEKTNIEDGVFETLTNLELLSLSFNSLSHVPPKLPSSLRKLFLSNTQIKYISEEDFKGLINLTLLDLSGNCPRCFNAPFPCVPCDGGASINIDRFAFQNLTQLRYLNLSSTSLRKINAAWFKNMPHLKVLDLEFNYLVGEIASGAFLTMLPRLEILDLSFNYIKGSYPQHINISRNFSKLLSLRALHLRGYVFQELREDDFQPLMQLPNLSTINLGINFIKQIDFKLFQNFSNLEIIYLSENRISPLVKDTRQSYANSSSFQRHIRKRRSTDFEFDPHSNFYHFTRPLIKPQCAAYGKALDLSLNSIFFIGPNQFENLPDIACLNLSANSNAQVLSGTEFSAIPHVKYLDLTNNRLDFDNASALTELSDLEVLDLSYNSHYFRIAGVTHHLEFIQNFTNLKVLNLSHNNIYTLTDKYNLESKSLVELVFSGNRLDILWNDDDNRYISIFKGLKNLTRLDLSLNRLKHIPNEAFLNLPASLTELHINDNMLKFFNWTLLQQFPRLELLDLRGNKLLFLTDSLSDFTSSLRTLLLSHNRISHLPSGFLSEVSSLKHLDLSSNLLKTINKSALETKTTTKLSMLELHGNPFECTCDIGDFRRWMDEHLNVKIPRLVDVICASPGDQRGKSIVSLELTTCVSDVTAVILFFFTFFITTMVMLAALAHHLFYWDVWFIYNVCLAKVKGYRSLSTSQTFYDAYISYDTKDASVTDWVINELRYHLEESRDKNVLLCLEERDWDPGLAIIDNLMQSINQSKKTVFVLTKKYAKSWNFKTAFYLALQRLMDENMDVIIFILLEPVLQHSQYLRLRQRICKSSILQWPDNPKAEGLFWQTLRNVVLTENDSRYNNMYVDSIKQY
Method in brief: as §1

human TLR9 = molecular target: T3, human TLR9 (Homo sapiens, UniProt Q9NR96); experiment: TLR9 inhibition reporter assay (HEK-Blue cells, SEAP reporter, ODN2006 stimulation); settings: HEK-Blue cells overexpressing human TLR9, SEAP reporter, ODN2006 5 nM
T3 construct: host or cells: HEK-Blue cells
T3 sequence (Q9NR96 26-1032): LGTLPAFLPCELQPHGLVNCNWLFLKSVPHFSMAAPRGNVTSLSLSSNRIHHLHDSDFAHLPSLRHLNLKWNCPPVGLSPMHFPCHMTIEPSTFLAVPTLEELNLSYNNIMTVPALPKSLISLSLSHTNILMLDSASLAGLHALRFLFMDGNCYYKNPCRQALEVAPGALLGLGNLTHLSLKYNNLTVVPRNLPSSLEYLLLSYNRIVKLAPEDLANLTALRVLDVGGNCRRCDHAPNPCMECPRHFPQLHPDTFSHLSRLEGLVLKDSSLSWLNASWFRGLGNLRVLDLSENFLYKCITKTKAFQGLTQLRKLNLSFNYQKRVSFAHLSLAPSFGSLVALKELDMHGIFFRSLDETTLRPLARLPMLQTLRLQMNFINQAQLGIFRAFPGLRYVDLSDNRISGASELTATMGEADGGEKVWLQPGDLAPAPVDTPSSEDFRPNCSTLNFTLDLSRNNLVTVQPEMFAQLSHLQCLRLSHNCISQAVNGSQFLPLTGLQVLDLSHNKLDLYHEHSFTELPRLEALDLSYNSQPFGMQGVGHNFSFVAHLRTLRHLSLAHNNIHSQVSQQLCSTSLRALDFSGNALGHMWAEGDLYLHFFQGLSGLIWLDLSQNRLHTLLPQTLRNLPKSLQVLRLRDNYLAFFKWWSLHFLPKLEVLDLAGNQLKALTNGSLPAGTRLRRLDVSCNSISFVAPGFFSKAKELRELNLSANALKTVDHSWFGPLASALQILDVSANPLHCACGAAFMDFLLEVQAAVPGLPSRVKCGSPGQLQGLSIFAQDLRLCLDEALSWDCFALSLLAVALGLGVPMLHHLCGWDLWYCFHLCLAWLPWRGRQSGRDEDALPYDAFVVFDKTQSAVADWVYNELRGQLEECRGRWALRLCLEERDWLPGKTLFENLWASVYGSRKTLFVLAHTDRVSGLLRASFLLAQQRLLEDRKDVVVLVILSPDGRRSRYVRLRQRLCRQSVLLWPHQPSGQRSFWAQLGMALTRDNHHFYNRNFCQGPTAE
Method in brief: as §1

Row | Structure (SMILES) | IC50 (human TLR7) | IC50 (human TLR8) | IC50 (human TLR9)
1 | Cc1c(-c2[nH]c3sc(C(=O)N4CCC(N(C)C)CC4)nc3c2C(C)C)cn2ncnc2c1C [Example 376, (5-(7,8-dimethyl-[1,2,4]triazolo[1,5-a]pyridin-6-yl)-6-isopropyl-4H-pyrrolo[3,2-d]thiazol-2-yl)(4-(dimethylamino)piperidin-1-yl)methanone] | 4.54 nM | 2.8 nM | 6300 nM
2 | Cc1c(-c2[nH]c3sc(C(=O)N4CC(F)C4)nc3c2C(C)C)cn2ncnc2c1C [Example 379, (5-(7,8-dimethyl-[1,2,4]triazolo[1,5-a]pyridin-6-yl)-6-isopropyl-4H-pyrrolo[3,2-d]thiazol-2-yl) (3-fluoroazetidin-1-yl)methanone] | 55.7 nM | 22.9 nM | 28000 nM
3 | Cc1c(-c2[nH]c3sc(C(=O)N4CCN(C(C)C)CC4)nc3c2C(C)C)cn2ncnc2c1C [Example 380, (5-(7,8-dimethyl-[1,2,4]triazolo[1,5-a]pyridin-6-yl)-6-isopropyl-4H-pyrrolo[3,2-d]thiazol-2-yl)(4-isopropylpiperazin-1-yl)methanone] | 11.5 nM | 5.07 nM | 6520 nM
4 | Cc1c(-c2[nH]c3sc(C(=O)NCCC4CCN(C)CC4)nc3c2C(C)C)cn2ncnc2c1C [Example 381, 5-(7,8-dimethyl-[1,2,4]triazolo[1,5-a]pyridin-6-yl)-6-isopropyl-N-(2-(1-methylpiperidin-4-yl)ethyl)-4H-pyrrolo[3,2-d]thiazole-2-carboxamide] | 11.1 nM | 9.06 nM | 5880 nM
5 | Cc1c(-c2[nH]c3sc(C(=O)N(C)CCN(C)C)nc3c2C(C)C)cn2ncnc2c1C [Example 382, 5-(7,8-dimethyl-[1,2,4]triazolo[1,5-a]pyridin-6-yl)-N-(2-(dimethylamino)ethyl)-6-isopropyl-N-methyl-4H-pyrrolo[3,2-d]thiazole-2-carboxamide] | 2.32 nM | 2.33 nM | 9860 nM
6 | Cc1c(-c2[nH]c3sc(C(=O)N4CC(N(C)C)C4)nc3c2C(C)C)cn2ncnc2c1C [Example 383, (5-(7,8-dimethyl-[1,2,4]triazolo[1,5-a]pyridin-6-yl)-6-isopropyl-4H-pyrrolo[3,2-d]thiazol-2-yl) (3-(dimethylamino)azetidin-1-yl)methanone] | 17.5 nM | 3.51 nM | 47000 nM
7 | Cc1c(-c2[nH]c3sc(C(=O)NCC4CNCCO4)nc3c2C(C)C)cn2ncnc2c1C (stereo not drawn) [Example 386, 5-(7,8-dimethyl-[1,2,4]triazolo[1,5-a]pyridin-6-yl)-6-isopropyl-N-(morpholin-2-ylmethyl)-4H-pyrrolo[3,2-d]thiazole-2-carboxamide] | 10.3 nM | 3.56 nM | 9560 nM
8 | COc1cc(-c2[nH]c3sc(C(=O)NCCN4CCCC4)nc3c2C(C)C)cn2ncnc12 [Example 387, 6-isopropyl-5-(8-methoxy-[1,2,4]triazolo[1,5-a]pyridin-6-yl)-N-(2-(pyrrolidin-1-yl)ethyl)-4H-pyrrolo[3,2-d]thiazole-2-carboxamide] | 25.2 nM | 43.9 nM | 11500 nM
9 | COc1cc(-c2[nH]c3sc(C(=O)NCCN(C)C)nc3c2C(C)C)cn2ncnc12 [Example 388, N-(2-(dimethylamino)ethyl)-6-isopropyl-5-(8-methoxy-[1,2,4]triazolo[1,5-a]pyridin-6-yl)-4H-pyrrolo[3,2-d]thiazole-2-carboxamide] | 22.4 nM | 37.4 nM | 16100 nM
10 | COc1cc(-c2[nH]c3sc(C(=O)NCC(F)F)nc3c2C(C)C)cn2ncnc12 [Example 389, N-(2,2-difluoroethyl)-6-isopropyl-5-(8-methoxy-[1,2,4]triazolo[1,5-a]pyridin-6-yl)-4H-pyrrolo[3,2-d]thiazole-2-carboxamide] | 50.3 nM | 168 nM | 37100 nM
11 | Cc1cc(-c2[nH]c3sc(C(=O)N4CCC(N(C)C)CC4)nc3c2C(C)C)cn2ncnc12 [Example 395, (4-(dimethylamino)piperidin-1-yl)(6-isopropyl-5-(8-methyl-[1,2,4]triazolo[1,5-a]pyridin-6-yl)-4H-pyrrolo[3,2-d]thiazol-2-yl)methanone] | 7.89 nM | 6.75 nM | 4500 nM
12 | Cc1cc(-c2[nH]c3sc(C(=O)NCCN(C)C)nc3c2C(C)C)cn2ncnc12 [Example 400, N-(2-(dimethylamino)ethyl)-6-isopropyl-5-(8-methyl-[1,2,4]triazolo[1,5-a]pyridin-6-yl)-4H-pyrrolo[3,2-d]thiazole-2-carboxamide] | 13.5 nM | 15.9 nM | 9250 nM
13 | Cc1c(-c2[nH]c3sc(CNC4CCN(C(C)C)CC4)nc3c2C(C)C)cn2ncnc2c1C [Example 401, N-((5-(7,8-dimethyl-[1,2,4]triazolo[1,5-a]pyridin-6-yl)-6-isopropyl-4H-pyrrolo[3,2-d]thiazol-2-yl)methyl)-1-isopropylpiperidin-4-amine] | 36.9 nM | 35.7 nM | 13500 nM
